Measured values published in ChEMBL document CHEMBL1128443, “Synthesis and structure-activity relationships of phenylenebis(methylene)-linked bis-tetraazamacrocycles that inhibit HIV replication. Effects of macrocyclic ring size and substituents on the aromatic linker” (J Med Chem, 1995).

Columns and labels:
[1] = test system: Human immunodeficiency virus 2; assay: Concentration required to protect the virus infected cells against viral cytopathicity was measured on HIV-2(ROD) virus strain in MT-4 cells; type: functional, organism-based, MT4
MT4 [2] = assay: Concentration required to reduce the viability of mock-infected MT-4 cells; type: functional, Homo sapiens
[3] = test system: Human immunodeficiency virus 1; assay: Concentration required to protect the virus infected cells against viral cytopathicity was measured on HIV-1(IIIB) virus strain in MT-4 cells; type: functional, organism-based, MT4
MT4 [4] = settings: Homo sapiens
[5] = Human immunodeficiency virus 2, MT4
[6] = Human immunodeficiency virus 1, MT4
[7] = mt4, tested as the Zn salt or complex

Row | Compound | EC50 [1, 5] [µM] | EC50 [3, 6] [µM] | CC50 (MT4 [2]; Homo sapiens, MT4) [µM] | also measured
1 | Fc1c(CN2CCCNCCNCCCNCC2)cccc1CN1CCCNCCNCCCNCC1 | 0.0734 | 0.0347 | > 201 | 
2 | Cc1cc(CN2CCCNCCNCCCNCC2)c(C)cc1CN1CCCNCCNCCCNCC1 | 0.0011 | 0.0064 | > 208 | 
3 | C1CNCCNCCCNCCNC1 | 150 | 399 | > 1250 | 
4 | O=[N+]([O-])c1cc(CN2CCCNCCNCCCNCC2)ccc1CN1CCCNCCNCCCNCC1 | 0.0731 | 0.065 | > 203 | 
5 | c1cc(CC2CNCCNCCCNCCNC2)ccc1CC1CNCCNCCCNCCNC1 | 0.674 | 0.506 | 406 | 
6 | CCN1CCCN(CC)CCN(Cc2ccc(CN3CCCN(CC)CCN(CC)CCCN(CC)CC3)cc2)CCCN(CC)CC1 | 14.6 | 7.79 | > 341 | 
7 | Brc1cc(CN2CCCNCCNCCCNCC2)cc(CN2CCCNCCNCCCNCC2)c1 | 0.0538 | 0.0845 | > 192 | 
8 | Cc1ccc(CN2CCCNCCNCCCNCC2)cc1 | 1.15 | 1.42 | > 324 | 
9 | c1cc(CN2CCCNCCCNCCCNCCC2)cc(CN2CCCNCCCNCCCNCCC2)c1 | 71.5 | 16.7 | 193 | 
10 | c1cc(CN2CCCNCCCNCCCNCCC2)ccc1CN1CCCNCCCNCCCNCCC1 | 13.7 | 9.13 | 48 | 
11 | NCCCNCCNCCCNCc1ccc(CN2CCCNCCNCCCNCC2)cc1 | 0.711 | 0.373 | > 444 | 
12 | Clc1c(Cl)c(CN2CCCNCCNCCCNCC2)c(Cl)c(CN2CCCNCCNCCCNCC2)c1Cl | 1.96 | 0.529 | 9 | 
13 | c1ccc(-c2cc(CN3CCCNCCNCCCNCC3)ccc2CN2CCCNCCNCCCNCC2)cc1 | 0.08 | 0.106 | > 198 | 
14 | c1ccc(-c2cc(CN3CCCNCCNCCCNCC3)cc(CN3CCCNCCNCCCNCC3)c2)cc1 | 0.0246 | 0.206 | > 198 | 
15 | c1cc(CN2CCNCCCNCCNCC2)ccc1CN1CCNCCCNCCNCC1 | 0.234 | 0.167 | > 208 | 
16 | c1cc(CN2CCNCCNCCNCC2)ccc1CN1CCNCCNCCNCC1 | 2.36 | 0.322 | 55 | 
17 | c1cc(CN2CCCNCCNCCCNCC2)ccc1CN1CCCNCCNCCNCCC1 | 0.0556 | 0.0079 | > 397 | 
18 | c1cc(CN2CCCNCCCNCCNCCC2)cc(CN2CCCNCCCNCCNCCC2)c1 | 11.7 | 2.72 | > 190 | 
19 | 1,1'-[1,4-phenylenebis(methylene)]bis[1,4,8,11-tetraazacyclotetradecane]copper Heptahydrate (7H2O) [listing 1 of 2 here] |  |  |  | EC50 ([1]; mt4): 0.0272 µM; EC50 ([3]; mt4): 0.0181 µM
20 | 1,1'-[1,4-phenylenebis(methylene)]bis[1,4,8,11-tetraazacyclotetradecane]copper Heptahydrate (7H2O) [listing 2 of 2 here] |  |  |  | CC50 (MT4 [4]): > 201 µM
21 | 1,1'-[1,4-phenylenebis(methylene)]bis[1,4,8,11-tetraazacyclotetradecane] Palladium Diperchlorate Tetrahydrate (4H2O) [listing 1 of 2 here] |  |  |  | EC50 ([1]; mt4): 59.3 µM; EC50 ([3]; mt4): 31.5 µM
22 | c1cc(CN2CCCNCCNCCNCCC2)ccc1CN1CCCNCCNCCNCCC1 | 0.059 | 0.0253 | > 421 | 
23 | c1cc(CN2CCNCCNCCNCC2)cc(CN2CCNCCNCCNCC2)c1 | 0.536 | 0.0751 | 20 | 
24 | c1cc(CN2CCCNCCNCCCNCC2)cc(CN2CCCNCCNCCCNCC2)c1 | 0.0422 | 0.0337 | > 421 | 
25 | 1,1'-[1,4-phenylenebis(methylene)]bis[1,4,8,11-tetraazacyclotetradecane] Palladium Diperchlorate Tetrahydrate (4H2O) [listing 2 of 2 here] |  |  |  | CC50 (MT4 [4]): > 210 µM
26 | c1cc(CN2CCCNCCNCCCNCC2)ccc1CN1CCCNCCCNCCCNCCC1 | 11.6 | 2.43 | > 209 | 
27 | c1cc(CN2CCCNCCNCCCNCC2)ccc1CN1CCCNCCNCCCNCC1 [listing 1 of 2 here] |  | 0.0042 | > 421 | 
28 | c1cc(CCN2CCCNCCNCCCNCC2)ccc1CCN1CCCNCCNCCCNCC1 | 69.7 | 14.9 | > 201 | 
29 | O=[N+]([O-])c1cc(CN2CCCNCCNCCCNCC2)cc(CN2CCCNCCNCCCNCC2)c1 | 0.0569 | 0.0406 | 44 | 
30 | c1cc(CN2CCCNCCNCCCNCC2)ccc1CN1CCCNCCNCCCNCC1 [listing 2 of 2 here] |  |  |  | EC50 [1, 7]: 0.0024 µM; CC50 (MT4 [2]; tested as the Zn salt or complex): > 251 µM; EC50 [3, 7]: 0.0033 µM

Second part, led by results:

Row | EC50 [1, 5] [µM] | EC50 [3, 6] [µM] | Compound | CC50 (MT4 [2]; Homo sapiens, MT4) [µM] | also measured
31 | 0.0066 | 0.0058 | COc1cc(CN2CCCNCCNCCCNCC2)c(OC)cc1CN1CCCNCCNCCCNCC1 | > 206 | 
32 | 14.5 | 0.403 | c1cc(CCCN2CCCNCCNCCCNCC2)ccc1CCCN1CCCNCCNCCCNCC1 | 283 | 
33 | 3.13 | 1.36 | c1ccc(CN2CCCNCCNCCCNCC2)c(CN2CCCNCCNCCCNCC2)c1 | > 168 | 
34 | 2.01 | 1.67 | c1cc(CN2CCCNCCCNCCNCCC2)ccc1CN1CCCNCCCNCCNCCC1 | 171 | 
35 | 0.759 | 0.0843 | c1cc(CN2CCCNCCNCCNCCC2)cc(CN2CCCNCCNCCCNCC2)c1 | > 421 | 
36 | 0.0079 | 0.0079 | Fc1c(F)c(CN2CCCNCCNCCCNCC2)c(F)c(F)c1CN1CCCNCCNCCCNCC1 | 47 | 
37 | 3.18 | 0.318 | c1cc(CN2CCCNCCNCCNCCC2)ccc1CN1CCCNCCCNCCCNCCC1 | 101 | 
38 | 0.0025 | 0.0107 | Clc1cc(CN2CCCNCCNCCCNCC2)c(Cl)cc1CN1CCCNCCNCCCNCC1 | 58 | 
39 | 0.645 | 0.323 | c1cc(CN2CCCNCCNCCNCCC2)cc(CN2CCCNCCNCCNCCC2)c1 | > 403 | 
40 | 0.0618 | 0.0408 | c1cc(CN2CCNCCCNCCNCC2)cc(CN2CCNCCCNCCNCC2)c1 | > 184 | 
41 | 0.0035 | 0.0061 | Brc1cc(CN2CCCNCCNCCCNCC2)ccc1CN1CCCNCCNCCCNCC1 | > 203 | 
42 | 0.246 | 0.138 | Brc1c(CN2CCCNCCNCCCNCC2)cccc1CN1CCCNCCNCCCNCC1 | > 144 | 
